This is an account of results in ChEMBL document CHEMBL5331066, “Structure-guided design of novel HEPT analogs with enhanced potency and safety: From Isopropyl-HEPTs to Cyclopropyl-HEPTs” (Eur J Med Chem, 2023).

A value given as a limit tells only on which side of the number the result lay.

The nature of data set [1]: Selectivity index, ratio of CC50 for cytotoxicity against human MT4 cells to EC50 for antiviral activity against wild type HIV1 IIIB infected in human MT4 cells. Type of data set: toxicity, cell-based. The note with it: read-out: Ratio CC50/EC50.
In data set [2] the test system is Human immunodeficiency virus 1. As to the kind of experiment: Antiviral activity against HIV1 harboring Y181C mutant infected in human MT4 cells assessed as protection against virus-induced cytopathicity. Type of data set: functional, organism-based. The note with it: Human immunodeficiency virus 1, MT4. (In general: Protection from cytopathic effect is a common read-out in antiviral testing.)

The subject of data set [3] is Human immunodeficiency virus 1. Description: Antiviral activity against wild type HIV1 IIIB infected in human MT4 cells assessed as protection against virus-induced cytopathicity. Type of data set: functional, organism-based. The note with it: Human immunodeficiency virus 1, IIIB.
Data set [4] concerns the target Human immunodeficiency virus type 1 reverse transcriptase (Human immunodeficiency virus 1, UniProt Q72547). Description: Inhibition of wild type HIV-1 reverse transcriptase assessed as inhibition of biotin deoxyuridine triphosphate incorporation into […].
For data set [5], the system named is Human immunodeficiency virus 1. Description: Antiviral activity against HIV1 harboring K103 N mutant infected in human MT4 cells assessed as protection against virus-induced cytopathicity. Type of data set: functional, organism-based. The note with it: Human immunodeficiency virus 1, MT4.
The subject of data set [6] is Human immunodeficiency virus 1. As to the kind of experiment: Antiviral activity against HIV1 harboring E138K mutant infected in human MT4 cells assessed as protection against virus-induced cytopathicity. In kind it is functional, organism-based. The note with it: Human immunodeficiency virus 1, MT4.
Data set [7] concerns Human immunodeficiency virus 1. Description: Antiviral activity against HIV1 harboring L100I mutant infected in human MT4 cells assessed as protection against virus-induced cytopathicity. In kind it is functional, organism-based. The note with it: Human immunodeficiency virus 1, MT4.
Data set [8] deals with Human immunodeficiency virus 1. Description: Antiviral activity against HIV1 harboring Y188L mutant infected in human MT4 cells assessed as protection against virus-induced cytopathicity. In kind it is functional, organism-based. The note with it: Human immunodeficiency virus 1, MT4.
Data set [9] in a line: Cytotoxicity against human MT4 cells assessed as reduction in cell viability. Type of data set: toxicity, cell-based.

For orientation: EC50 means the concentration that produces a half-maximal response. As usually defined, the IC50 is the concentration needed to halve the response being measured. In general, CC50 refers to the concentration at which the toxic effect on the cells reaches its halfway point. As to `Cc1cc(C)cc(Sc2c(C3CC3)c(=O)[nH]c(=O)n2COCc2ccccc2)c1`, the selectivity ratio in data set [1] was determined as 1480. For the same compound, the EC50 is 1.03 µM in data set [2]; 0.023 µM in data set [3]; 1.05 µM in [5]; 0.14 µM in data set [6]; 0.13 µM in data set [7]; 3.75 µM in data set [8]. Further, the IC50 in [4] amounted to 0.08 µM. Besides, in [9], the CC50 turned out to be 34 µM.

For `O=c1[nH]c(=O)n(COCc2ccccc2)c(Sc2ccccc2Br)c1C1CC1`, in data set [1], the selectivity ratio came out at 184. Moreover, the EC50 in data set [2] was 2.66 µM; in data set [3], 0.15 µM; in data set [5], 7.21 µM; in [6], 0.41 µM; in data set [7] it was 0.54 µM; in [8], above 27.2 µM. For the same compound, the IC50 in [4] was determined as 0.16 µM. The CC50 in [9] is 27.2 µM.

`O=c1[nH]c(=O)n(COCc2ccccc2)c(Sc2ccccc2)c1C1CC1`: the selectivity ratio in [1] turned out to be 1250. Also, the EC50 in data set [2] was 9.83 µM; in data set [3] it was 0.039 µM; in [5] it was above 30.7 µM; in data set [6] it was 2.79 µM; in data set [7] it was 1.23 µM; in [8], above 30.7 µM. In addition, the CC50 in data set [9] was determined as 49.9 µM.

For the compound `O=c1[nH]c(=O)n(COCc2ccccc2)c(Sc2cccc(Cl)c2Cl)c1C1CC1`, the selectivity ratio in [1] was found to be 34. For the same compound, the EC50 in data set [2] is above 27.4 µM; in [3] it was 0.8 µM; in data set [5], above 27.4 µM; in data set [6], 0.67 µM; in [7] it was 2.34 µM; in data set [8] it was above 27.4 µM. Further, the IC50 in data set [4] was found to be 1.22 µM. The CC50 in data set [9] amounted to 27.4 µM.

Consider `O=c1[nH]c(=O)n(COCc2ccccc2)c(Sc2ccc(Br)cc2)c1C1CC1`, for which the selectivity ratio in data set [1] is above 4. Besides, the EC50 is 4.11 µM in [2]; 6.18 µM in data set [3]; above 25.9 µM in [5]; 9.8 µM in data set [6]; 4.05 µM in data set [7]; above 25.9 µM in data set [8]. Also, the IC50 in data set [4] amounted to 3.92 µM. Besides, in [9], the CC50 came out at 25.9 µM.

`O=c1[nH]c(=O)n(COCc2ccccc2)c(Sc2ccc(Cl)cc2)c1C1CC1`: the selectivity ratio in data set [1] turned out to be 7. For the same compound, the EC50 was 3.78 µM in data set [2]; 4.46 µM in data set [3]; above 30.3 µM in data set [5]; above 30.3 µM in data set [6]; 4.48 µM in data set [7]; above 30.3 µM in data set [8]. Moreover, in [4], the IC50 came to 5.78 µM. The CC50 in [9] came to 30.2 µM.

For the compound `CC(C)c1c(Sc2cccc3ccccc23)n(COCc2ccccc2)c(=O)[nH]c1=O`, the selectivity ratio in data set [1] worked out at 565. For the same compound, in data set [3], the EC50 came out at 0.063 µM. For the same compound, the CC50 in data set [9] was 34 µM.

Take `Cc1ccnc2c1NC(=O)c1cccnc1N2C1CC1` [NEVIRAPINE]: the EC50 was 7.04 µM in [2]; 0.086 µM in data set [3]; 5.33 µM in [5]; 0.14 µM in data set [6]; 1.28 µM in [7]; above 9.51 µM in data set [8]. Also, the CC50 in [9] is above 9.51 µM.

As to `Cc1ccc(Sc2c(C3CC3)c(=O)[nH]c(=O)n2COCc2ccccc2)cc1`, the selectivity ratio in data set [1] amounted to 12. Further, the EC50 in data set [2] is 5.22 µM; in data set [3], 2.59 µM; in data set [5], above 31.8 µM; in [6], 10.2 µM; in data set [7] it was 2.05 µM; in [8], above 31.8 µM. The IC50 in [4] came to 3.8 µM. Moreover, the CC50 in data set [9] was determined as 31.8 µM.

Regarding `O=c1[nH]c(=O)n(COCc2ccccc2)c(Sc2cc(Cl)cc(Cl)c2)c1C1CC1`, the selectivity ratio in data set [1] was found to be 395. Further, the EC50 is 1.71 µM in data set [2]; 0.073 µM in [3]; 2.74 µM in [5]; 0.45 µM in data set [6]; 0.4 µM in data set [7]; 7.7 µM in data set [8]. Further, the IC50 in data set [4] amounted to 0.11 µM. Moreover, the cytotoxic concentration (CC50) in data set [9] turned out to be 28.7 µM.

On to `O=c1[nH]c(=O)n(COCc2ccccc2)c(Sc2ccc(F)cc2)c1C1CC1`, for which, in data set [1], the selectivity ratio was found to be 53. The EC50 in [2] was 6.4 µM; in [3], 0.75 µM; in data set [5], above 40.8 µM; in data set [6] it was 2.03 µM; in data set [7], 1.88 µM; in [8] it was above 40.8 µM. Also, in data set [9], the CC50 came to 38.8 µM.

Turning to `O=c1[nH]c(=O)n(COCc2ccccc2)c(Sc2cccc3ccccc23)c1C1CC1`, the selectivity ratio in data set [1] worked out at 36. Besides, the EC50 in [2] is 24.5 µM; in data set [3] it was 0.84 µM; in [5], above 177 µM; in data set [6], 31.6 µM; in data set [7], 23.1 µM; in data set [8], above 177 µM. For the same compound, in data set [9], the CC50 is 30.7 µM.

For `COc1ccc(Sc2c(C3CC3)c(=O)[nH]c(=O)n2COCc2ccccc2)cc1`, in [1], the selectivity ratio is below 1. In addition, the EC50 in data set [3] is above 44.6 µM. In addition, the CC50 in [9] stood at 44.6 µM.

Turning to `Cc1cn([C@H]2C[C@H](N=[N+]=[N-])[C@@H](CO)O2)c(=O)[nH]c1=O` [ZIDOVUDINE], in data set [1], the selectivity ratio was above 309. The EC50 was 0.02 µM in data set [2]; 0.028 µM in data set [3]; 0.026 µM in [5]; 0.016 µM in data set [7]; 0.029 µM in [8]. In data set [4], the IC50 is 2.2 µM. The CC50 in [9] was above 7.48 µM.

Take `COc1cccc(OC)c1Sc1c(C2CC2)c(=O)[nH]c(=O)n1COCc1ccccc1`: the selectivity ratio in data set [1] was above 40. The EC50 in data set [2] is above 284 µM; in data set [3], 6.7 µM; in [5], above 284 µM; in [6] it was above 284 µM; in [7] it was 144 µM; in data set [8], above 284 µM. The CC50 in data set [9] was above 284 µM.

Turning to `Cc1c(Sc2ccccc2)n(COCCO)c(=O)[nH]c1=O` [HEPT], in [1], the selectivity ratio was 106. Besides, in [3], the EC50 is 7 µM. Moreover, the CC50 in data set [9] amounted to 740 µM.

With `COc1ccc(OC)c(Sc2c(C3CC3)c(=O)[nH]c(=O)n2COCc2ccccc2)c1`, the selectivity ratio in [1] was 150. Moreover, the EC50 in data set [2] is 5.68 µM; in [3], 0.22 µM; in data set [5], above 33.4 µM; in [6] it was 0.99 µM; in [7], 0.66 µM; in [8] it was above 33.4 µM. Further, the CC50 in data set [9] turned out to be 33.4 µM.

As for `COc1cc(OC)cc(Sc2c(C3CC3)c(=O)[nH]c(=O)n2COCc2ccccc2)c1`, the selectivity ratio in data set [1] was determined as 38. The EC50 is 9.63 µM in data set [2]; 0.77 µM in data set [3]; above 29.7 µM in data set [5]; 3.07 µM in [6]; 1.79 µM in data set [7]; above 29.7 µM in data set [8]. In data set [9], the CC50 worked out at 29.7 µM.

On to `COc1ccc(Sc2c(C3CC3)c(=O)[nH]c(=O)n2COCc2ccccc2)c(OC)c1`, for which, in [1], the selectivity ratio is below 1. Moreover, the EC50 in data set [3] was above 30.9 µM. Further, the CC50 in [9] came to 30.9 µM.

In the case of `Cc1cccc(Sc2c(C3CC3)c(=O)[nH]c(=O)n2COCc2ccccc2)c1`, the selectivity ratio in data set [1] was found to be 1160. In addition, the EC50 in data set [2] is 2.56 µM; in [3] it was 0.028 µM; in data set [5] it was 2.76 µM; in data set [6], 0.16 µM; in data set [7], 0.17 µM; in data set [8] it was above 32.5 µM. Further, the CC50 in [9] came out at 32.5 µM.
